Assay results as given in patent US11999737B2, “Kinase inhibitors and related methods of use” (Duke University, priority 2014, dated 2024).

Key:
intact mouse aorta = assay: Phenylephrine-induced contractile force of intact mouse aorta (myograph)
Description: A, Typical myograph force trace showing the effect of HS38 on intact mouse aorta contractility. The maximum contractile force of PE-induced contraction was reduced by approximately 30% when HS38 (10 μM) was added five minutes prior to PE addition and by approximately 40% when added ten minutes after PE addition. B, Serum-starved aortic SM cells were treated with SIP (0.25 μM) and HS-38 (±50 μM) for 30 min.
Tissue Preparation and Force Measurements. All protocols and procedures for tissue harvest were carried out according to protocols approved by the Animal Care and Use Committees at the University of Virginia and Duke University, Helical strips of mouse aorta or strips of rabbit ileum were dissected, (˜400 μm wide, 2 mm long) and mounted between two tungsten hooks on a bubble plate for force measurements (Horiuti (1988) J. Physiol.-London 398, 131-148). […] Intact strips of mouse abdominal aorta were challenged with phenylephrine following pretreatment with HS38 or diluent, DMSO or HS38 and DMSO were added after maximal phenylephrine-induced force was achieved and force output measured. […] For Ca^2+ activating solutions, EGTA (10 mM) and a calculated amount of Ca-methanesulfonate was added to give the desired free Ca^2+ concentration ((Horiuti (1988) J. Physiol.-London 398, 131-148).

[1] = system: MYPT1 Thr696 phosphorylation; assay: Western blot of MYPT1 Thr696 phosphorylation in Ca2+-sensitized rabbit ileum; details: HS38 50 μM
Description: To examine the effect of ZIPK inhibition on sensitized force, muscle strips were stimulated with an intermediate calcium concentration solution (pCa 6.5). Once force reached a plateau, strips were Ca^2+-sensitized by the addition of the agonist carbachol (5 μM). Up to 2 μM of GTP was added together with the sensitizing agonist to compensate for possible loss of GTP during permeabilization. At the plateau of Ca-sensitized force (5-10 min upon stimulation), the ZIPK inhibitor, HS38 (50 μM) or diluent (0.1% DMSO) was added and the force relaxation time course was recorded. Tissue samples were frozen 20 min after the addition of HS38 for biochemical assays of RLC20 and MYPT1 phosphorylation.
MYPT1 and RLC20 phosphorylation: To examine the phosphorylation of MYPT1 and RLC20, rabbit ileum SM strips were treated as described above and previously reported. (Gong et al. (1995), J. Physiol.-London 486, 113-122; Kitazawa et al. (1989) J. Biol. Chem. 264, 5339-5342; Kobayashi et al. (1991) Am. J. Physiol. 260, C364-C370), Following the stimulation protocols, muscle strips were immediately frozen by immersion in −80° C. acetone with trichloroacetic acid (10% w/v) and stored at −80° C. […] Phosphorylation of MYPT1 Thr696 and of RLC20 was determined by SDS-PAGE and Western blotting. […]

[2] = system: rat caudal arterial smooth muscle (RTA); assay: Calyculin A-induced contraction of rat caudal arterial smooth muscle (RTA) strips
Description: Tissue preparation and Force Measurement for RTA smooth muscle: Caudal arteries were removed from male Sprague-Dawley rats (300-350 g) that had been anesthetized and euthanized according to protocols approved by the University of Calgary Animal Care and Use Committee. The arteries were cleaned of excess adventitia, de-endothelialized and cut into helical strips (1.5 mm×6 mm). Muscle strips were mounted on a Grass isometric force transducer (FT03C), and force was recorded. Intact tissues were treated with calyculin A (CLa, […]). At selected sampling points, muscle strips were flash-frozen in 10% (w/v) TCA, 10 mM DTT in acetone followed by 3×10 s washes in 10 mM DTT in acetone. Tissues were then lyophilized overnight. Protein was extracted from each arterial strip by incubation (16 h, 5° C.) in 0.5 mL of SDS-PAGE sample buffer.
In this case, calyculin A (CLa, 10^−7M)-induced contractions were used since inhibition of myosin phosphatase activity in RTA unmasks endogenous Ca^2+-independent LC20 kinase activities, including ZIPK. Experiments were performed with addition of inhibitors for ROK (HA-1152, 10^−6 M; GSK429286A, 10^−5M) in combination with HS-38. Combining ROK and ZIPK inhibitors had no effect on Ca^2+-sensitization (force generation or downstream ZIPK target phosphorylation).
Data were collected for RTA smooth muscle contraction in the presence and absence of HS-38, including measurements of contractile force development, and the concentration dependency of these effects. […] The t1/2 max value is defined as the time required for contractile force to reach 50% of maximal tone.
The latency period, i.e. the time from addition of calyculin A to the onset of contraction, and the half-time from the initiation of contraction to the plateau of the contractile response, were determined, in addition to the t1/2 values (the half-time from addition of calyculin A to the plateau of the contractile response) determined previously, in the absence and presence of HS-38. […] On the other hand, the steady-state level of force induced by calyculin A was unaffected by ZIPK inhibition. The results support the ability of HS38 to suppress the initiation and rate of contractile tone without altering the total force potential of the muscle.

LC20 phosphorylation = system: LC20 phosphorylation; parameters: species or system rat

Structure (SMILES): CC(Sc1nc2c(cnn2-c2cccc(Cl)c2)c(=O)[nH]1)C(N)=O (centres unmarked) [HS38]
- reduction of maximum contractile force of PE-induced contraction (intact mouse aorta; HS38 10 μM added five minutes prior to PE addition): approximately 30%
- reduction of maximum contractile force of PE-induced contraction (intact mouse aorta; HS38 10 μM added ten minutes after PE addition): approximately 40%
- MYPT1 Thr696 phosphorylation level [1]: significantly reduced
- contractile force during the Ca2+ sensitization process ([2]; calyculin A): concentration-dependent attenuation
- t1/2max; time to reach 50% of maximal contractile force ([2]; calyculin A 10^−7 M, increasing concentrations of HS-38): concentration-dependent increases
- Latency (s) ([2]; calyculin A with HS-38, n = 28, mean ± SEM): *654.7 ± 60.6 s
- % KCl contraction ([2]; steady-state force, calyculin A with HS-38, n = 28, mean ± SEM): **161.7 ± 8.4%
- LC20 mono- and diphosphorylation (LC20 phosphorylation): time-dependent attenuations
